Measurements from PubChem BioAssay (NCI).
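Results reflect a 48-hour exposure of cells in 96-well plates to compound at five concentrations. Here, GI50 denotes the concentration required for 50% inhibition of growth. At the TGI there is no net growth.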

How the values were obtained:
Assay in all cases: DTP human tumour cell line panel, 48 h
KM12 colon = tested on: KM12 colon
SNB-19 CNS = tested on: SNB-19 CNS
DU-145 prostate = tested on: DU-145 prostate
MOLT-4 leukemia = tested on: MOLT-4 leukemia
A498 renal = tested on: A498 renal
HS 578T breast = tested on: HS 578T breast
MDA-MB-435 = tested on: MDA-MB-435
HOP-92 NSCLC = tested on: HOP-92 NSCLC
K-562 leukemia = tested on: K-562 leukemia
SK-OV-3 ovarian = tested on: SK-OV-3 ovarian
MDA-MB-231 breast = tested on: MDA-MB-231 breast
IGROV1 ovarian = tested on: IGROV1 ovarian
HOP-62 NSCLC = tested on: HOP-62 NSCLC
SR leukemia = tested on: SR leukemia
SF-268 CNS = tested on: SF-268 CNS
OVCAR-5 ovarian = tested on: OVCAR-5 ovarian
HL-60(TB) leukemia = tested on: HL-60(TB) leukemia
SW-620 colon = tested on: SW-620 colon
NCI-H522 lung = tested on: NCI-H522 lung
LOX IMVI melanoma = tested on: LOX IMVI melanoma
HT29 colon = tested on: HT29 colon
UACC-257 melanoma = tested on: UACC-257 melanoma
BT-549 breast = tested on: BT-549 breast
SK-MEL-2 melanoma = tested on: SK-MEL-2 melanoma
U251 CNS = tested on: U251 CNS
TK-10 renal = tested on: TK-10 renal
CCRF-CEM leukemia = tested on: CCRF-CEM leukemia
MALME-3M melanoma = tested on: MALME-3M melanoma
NCI-H226 lung = tested on: NCI-H226 lung
SK-MEL-5 melanoma = tested on: SK-MEL-5 melanoma
MCF7 breast = tested on: MCF7 breast
UO-31 renal = tested on: UO-31 renal
NCI-H460 lung = tested on: NCI-H460 lung
OVCAR-8 ovarian = tested on: OVCAR-8 ovarian
SN12C renal = tested on: SN12C renal
SF-295 CNS = tested on: SF-295 CNS
RXF 393 renal = tested on: RXF 393 renal
NCI-H23 lung = tested on: NCI-H23 lung
SNB-75 CNS = tested on: SNB-75 CNS
SK-MEL-28 melanoma = tested on: SK-MEL-28 melanoma
RPMI-8226 leukemia = tested on: RPMI-8226 leukemia
OVCAR-3 ovarian = tested on: OVCAR-3 ovarian
ACHN renal = tested on: ACHN renal
OVCAR-4 ovarian = tested on: OVCAR-4 ovarian
T-47D breast = tested on: T-47D breast
NCI/ADR-RES ovarian = tested on: NCI/ADR-RES ovarian
PC-3 prostate = tested on: PC-3 prostate
HCT-15 colon = tested on: HCT-15 colon
HCC-2998 colon = tested on: HCC-2998 colon
A549 NSCLC = tested on: A549 NSCLC
HCT-116 colon = tested on: HCT-116 colon
CAKI-1 renal = tested on: CAKI-1 renal
UACC-62 melanoma = tested on: UACC-62 melanoma
786-0 renal = tested on: 786-0 renal
COLO 205 colon = tested on: COLO 205 colon
EKVX NSCLC = tested on: EKVX NSCLC
M14 melanoma = tested on: M14 melanoma

Nc1nc2c(c3ncccc13)C(c1cccc(Br)c1)Cc1ncccc1-2 (centres undefined)
GI50 (KM12 colon): 0.433 µM | TGI (KM12 colon): 13.1 µM | GI50 (SNB-19 CNS): 11.5 µM | TGI (SNB-19 CNS): 25 µM | GI50 (DU-145 prostate): 1.13 µM | TGI (DU-145 prostate): 13.7 µM | GI50 (MOLT-4 leukemia): 0.705 µM | TGI (MOLT-4 leukemia): 31.8 µM | GI50 (A498 renal): 0.304 µM | TGI (A498 renal): 1.6 µM | GI50 (HS 578T breast): 2.9 µM | TGI (HS 578T breast): 23.5 µM | GI50 (MDA-MB-435): 0.256 µM | TGI (MDA-MB-435): 0.761 µM | GI50 (HOP-92 NSCLC): 0.95 µM | TGI (HOP-92 NSCLC): 15.5 µM | GI50 (K-562 leukemia): 0.539 µM | TGI (K-562 leukemia): > 100 µM | GI50 (SK-OV-3 ovarian): 0.74 µM | TGI (SK-OV-3 ovarian): 17.4 µM | GI50 (MDA-MB-231 breast): 1.65 µM | TGI (MDA-MB-231 breast): 18 µM | GI50 (IGROV1 ovarian): 2.64 µM | TGI (IGROV1 ovarian): 34.3 µM | GI50 (HOP-62 NSCLC): 0.88 µM | TGI (HOP-62 NSCLC): 21.5 µM | GI50 (SR leukemia): 0.377 µM | TGI (SR leukemia): 32.7 µM | GI50 (SF-268 CNS): 0.808 µM | TGI (SF-268 CNS): 20.1 µM | GI50 (OVCAR-5 ovarian): 7.84 µM | TGI (OVCAR-5 ovarian): 31.1 µM | GI50 (HL-60(TB) leukemia): 0.291 µM | TGI (HL-60(TB) leukemia): 7.86 µM | GI50 (SW-620 colon): 0.479 µM | TGI (SW-620 colon): 21.8 µM | GI50 (NCI-H522 lung): 0.503 µM | TGI (NCI-H522 lung): 11.6 µM | GI50 (LOX IMVI melanoma): 0.647 µM | TGI (LOX IMVI melanoma): 15.9 µM | GI50 (HT29 colon): 0.422 µM | TGI (HT29 colon): 11.4 µM | GI50 (UACC-257 melanoma): 18.2 µM | TGI (UACC-257 melanoma): 54.7 µM | GI50 (BT-549 breast): 0.681 µM | TGI (BT-549 breast): 6.16 µM | GI50 (SK-MEL-2 melanoma): 0.871 µM | TGI (SK-MEL-2 melanoma): 29.6 µM | GI50 (U251 CNS): 0.625 µM | TGI (U251 CNS): 12.7 µM | GI50 (TK-10 renal): 7.94 µM | TGI (TK-10 renal): 56.2 µM | GI50 (CCRF-CEM leukemia): 0.726 µM | TGI (CCRF-CEM leukemia): 38.6 µM | GI50 (MALME-3M melanoma): 11.5 µM | TGI (MALME-3M melanoma): 31.4 µM | GI50 (NCI-H226 lung): 18.8 µM | TGI (NCI-H226 lung): 67.4 µM | GI50 (SK-MEL-5 melanoma): 0.576 µM | TGI (SK-MEL-5 melanoma): 14.3 µM | GI50 (MCF7 breast): 0.37 µM | TGI (MCF7 breast): 18.1 µM | GI50 (UO-31 renal): 2.6 µM | TGI (UO-31 renal): 24.2 µM | GI50 (NCI-H460 lung): 0.492 µM | TGI (NCI-H460 lung): 11 µM | GI50 (OVCAR-8 ovarian): 5.24 µM | TGI (OVCAR-8 ovarian): 58 µM | GI50 (SN12C renal): 3.51 µM | TGI (SN12C renal): 33.8 µM | GI50 (SF-295 CNS): 0.828 µM | TGI (SF-295 CNS): 12.4 µM | GI50 (RXF 393 renal): 0.765 µM | TGI (RXF 393 renal): 4.06 µM | GI50 (NCI-H23 lung): 4.52 µM | TGI (NCI-H23 lung): 33 µM | GI50 (SNB-75 CNS): 0.3 µM | TGI (SNB-75 CNS): 13.4 µM | GI50 (SK-MEL-28 melanoma): 2.74 µM | TGI (SK-MEL-28 melanoma): 22.6 µM | GI50 (RPMI-8226 leukemia): 5.43 µM | TGI (RPMI-8226 leukemia): 48.7 µM | GI50 (OVCAR-3 ovarian): 0.28 µM | TGI (OVCAR-3 ovarian): 0.858 µM | GI50 (ACHN renal): 1.84 µM | TGI (ACHN renal): 34.8 µM | GI50 (OVCAR-4 ovarian): 7.13 µM | TGI (OVCAR-4 ovarian): 41 µM | GI50 (T-47D breast): 0.524 µM | TGI (T-47D breast): 38.7 µM | GI50 (NCI/ADR-RES ovarian): 0.408 µM | TGI (NCI/ADR-RES ovarian): 15.1 µM | GI50 (PC-3 prostate): 0.791 µM | TGI (PC-3 prostate): 18.5 µM | GI50 (HCT-15 colon): 0.504 µM | TGI (HCT-15 colon): 15.1 µM | GI50 (HCC-2998 colon): 2.83 µM | TGI (HCC-2998 colon): 13.7 µM | GI50 (A549 NSCLC): 1.88 µM | TGI (A549 NSCLC): 39.2 µM | GI50 (HCT-116 colon): 0.442 µM | TGI (HCT-116 colon): 11.4 µM | GI50 (CAKI-1 renal): 0.749 µM | TGI (CAKI-1 renal): 50.4 µM | GI50 (UACC-62 melanoma): 0.436 µM | TGI (UACC-62 melanoma): 17.4 µM | GI50 (786-0 renal): 1.36 µM | TGI (786-0 renal): 12 µM | GI50 (COLO 205 colon): 0.665 µM | TGI (COLO 205 colon): 3.81 µM | GI50 (EKVX NSCLC): 3.07 µM | TGI (EKVX NSCLC): 80.8 µM | GI50 (M14 melanoma): 0.509 µM | TGI (M14 melanoma): 12.6 µM
